# From ChEMBL document CHEMBL3045835, “Comparative study of conventional and microwave-assisted synthesis of some Schiff bases and their potential as antimicrobial agents” (2012)
# Experiments:
# Format in all cases: functional
# Pseudomonas aeruginosa [1] = experiment: Antibacterial activity against Pseudomonas aeruginosa MTCC 424 at 500 ug/ml after 18 hr by cup-plate method; details: MTCC 424, 18 h, read-out: DIZ
# Pseudomonas aeruginosa [2] = experiment: Antibacterial activity against Pseudomonas aeruginosa MTCC 424 at 200 ug/ml after 18 hr by cup-plate method; details: MTCC 424, 18 h, read-out: DIZ
# Pseudomonas aeruginosa [3] = experiment: Antibacterial activity against Pseudomonas aeruginosa MTCC 424 at 100 ug/ml after 18 hr by cup-plate method; details: MTCC 424, 18 h, read-out: DIZ
# Micrococcus luteus [4] = experiment: Antibacterial activity against Micrococcus luteus MTCC 1538 at 1500 ug/ml after 18 hr by cup-plate method; details: MTCC 1538, 18 h, read-out: DIZ
# Micrococcus luteus [5] = experiment: Antibacterial activity against Micrococcus luteus MTCC 1538 at 1000 ug/ml after 18 hr by cup-plate method; details: MTCC 1538, 18 h, read-out: DIZ
# Micrococcus luteus [6] = experiment: Antibacterial activity against Micrococcus luteus MTCC 1538 at 500 ug/ml after 18 hr by cup-plate method; details: MTCC 1538, 18 h, read-out: DIZ
# Micrococcus luteus [7] = experiment: Antibacterial activity against Micrococcus luteus MTCC 1538 at 200 ug/ml after 18 hr by cup-plate method; details: MTCC 1538, 18 h, read-out: DIZ
# Micrococcus luteus [8] = experiment: Antibacterial activity against Micrococcus luteus MTCC 1538 at 100 ug/ml after 18 hr by cup-plate method; details: MTCC 1538, 18 h, read-out: DIZ
# Bacillus pumilus [9] = experiment: Antibacterial activity against Bacillus pumilus MTCC 1456 at 1500 ug/ml after 18 hr by cup-plate method; details: MTCC 1456, 18 h, read-out: DIZ
# Bacillus pumilus [10] = experiment: Antibacterial activity against Bacillus pumilus MTCC 1456 at 1000 ug/ml after 18 hr by cup-plate method; details: MTCC 1456, 18 h, read-out: DIZ
# Bacillus pumilus [11] = experiment: Antibacterial activity against Bacillus pumilus MTCC 1456 at 500 ug/ml after 18 hr by cup-plate method; details: MTCC 1456, 18 h, read-out: DIZ
# Bacillus pumilus [12] = experiment: Antibacterial activity against Bacillus pumilus MTCC 1456 at 200 ug/ml after 18 hr by cup-plate method; details: MTCC 1456, 18 h, read-out: DIZ
# Bacillus pumilus [13] = experiment: Antibacterial activity against Bacillus pumilus MTCC 1456 at 100 ug/ml after 18 hr by cup-plate method; details: MTCC 1456, 18 h, read-out: DIZ
# Bacillus subtilis [14] = experiment: Antibacterial activity against Bacillus subtilis MTCC 441 at 1000 ug/ml after 18 hr by cup plate method; details: MTCC 441, 18 h, read-out: DIZ
# Bacillus subtilis [15] = experiment: Antibacterial activity against Bacillus subtilis MTCC 441 at 1500 ug/ml after 18 hr by cup plate method; details: MTCC 441, 18 h, read-out: DIZ
# Bacillus subtilis [16] = experiment: Antibacterial activity against Bacillus subtilis MTCC 441 at 500 ug/ml after 18 hr by cup plate method; details: MTCC 441, 18 h, read-out: DIZ
# Bacillus subtilis [17] = experiment: Antibacterial activity against Bacillus subtilis MTCC 441 at 200 ug/ml after 18 hr by cup plate method; details: MTCC 441, 18 h, read-out: DIZ
# Bacillus subtilis [18] = experiment: Antibacterial activity against Bacillus subtilis MTCC 441 at 100 ug/ml after 18 hr by cup plate method; details: MTCC 441, 18 h, read-out: DIZ
# Staphylococcus aureus [19] = experiment: Antibacterial activity against Staphylococcus aureus MTCC 1430 at 1500 ug/ml after 18 hr by cup-plate method; details: MTCC 1430, 18 h, read-out: DIZ
# Staphylococcus aureus [20] = experiment: Antibacterial activity against Staphylococcus aureus MTCC 1430 at 1000 ug/ml after 18 hr by cup-plate method; details: MTCC 1430, 18 h, read-out: DIZ
# Staphylococcus aureus [21] = experiment: Antibacterial activity against Staphylococcus aureus MTCC 1430 at 500 ug/ml after 18 hr by cup-plate method; details: MTCC 1430, 18 h, read-out: DIZ
# Staphylococcus aureus [22] = experiment: Antibacterial activity against Staphylococcus aureus MTCC 1430 at 200 ug/ml after 18 hr by cup-plate method; details: MTCC 1430, 18 h, read-out: DIZ
# Penicillium chrysogenum [23] = experiment: Antifungal activity against Penicillium chrysogenum MTCC 161 after 24 hr by broth dilution method; details: MTCC 161, 24 h
# Aspergillus niger [24] = experiment: Antifungal activity against Aspergillus niger MTCC 2546 after 24 hr by broth dilution method; details: MTCC 2546, 24 h
# Escherichia coli [25] = experiment: Antibacterial activity against Escherichia coli MTCC 1573 after 24 hr by broth dilution method; details: MTCC 1573, 24 h
# Pseudomonas fluorescens [26] = experiment: Antibacterial activity against Pseudomonas fluorescens MTCC 2421 after 24 hr by broth dilution method; details: MTCC 2421, 24 h
# Pseudomonas aeruginosa [27] = experiment: Antibacterial activity against Pseudomonas aeruginosa MTCC 424 after 24 hr by broth dilution method; details: MTCC 424, 24 h
# Micrococcus luteus [28] = experiment: Antibacterial activity against Micrococcus luteus MTCC 1538 after 24 hr by broth dilution method; details: MTCC 1538, 24 h
# Bacillus pumilus [29] = experiment: Antibacterial activity against Bacillus pumilus MTCC 1456 after 24 hr by broth dilution method; details: MTCC 1456, 24 h
# Staphylococcus aureus [30] = experiment: Antibacterial activity against Staphylococcus aureus MTCC 1430 after 24 hr by broth dilution method; details: MTCC 1430, 24 h
# Bacillus subtilis [31] = experiment: Antibacterial activity against Bacillus subtilis MTCC 441 after 24 hr by broth dilution method; details: MTCC 441, 24 h
# Pseudomonas fluorescens [32] = experiment: Antibacterial activity against Pseudomonas fluorescens MTCC 2421 at 1000 ug/ml after 18 hr by cup-plate method; details: MTCC 2421, 18 h, read-out: DIZ
# Pseudomonas fluorescens [33] = experiment: Antibacterial activity against Pseudomonas fluorescens MTCC 2421 at 1500 ug/ml after 18 hr by cup-plate method; details: MTCC 2421, 18 h, read-out: DIZ
# Pseudomonas fluorescens [34] = experiment: Antibacterial activity against Pseudomonas fluorescens MTCC 2421 at 500 ug/ml after 18 hr by cup-plate method; details: MTCC 2421, 18 h, read-out: DIZ
# Pseudomonas fluorescens [35] = experiment: Antibacterial activity against Pseudomonas fluorescens MTCC 2421 at 200 ug/ml after 18 hr by cup-plate method; details: MTCC 2421, 18 h, read-out: DIZ
# Penicillium chrysogenum [36] = experiment: Antifungal activity against Penicillium chrysogenum MTCC 161 at 1500 ug/ml after 18 hr by cup-plate method; details: MTCC 161, 18 h, read-out: DIZ
# Penicillium chrysogenum [37] = experiment: Antifungal activity against Penicillium chrysogenum MTCC 161 at 1000 ug/ml after 18 hr by cup-plate method; details: MTCC 161, 18 h, read-out: DIZ
# Penicillium chrysogenum [38] = experiment: Antifungal activity against Penicillium chrysogenum MTCC 161 at 500 ug/ml after 18 hr by cup-plate method; details: MTCC 161, 18 h, read-out: DIZ
# Penicillium chrysogenum [39] = experiment: Antifungal activity against Penicillium chrysogenum MTCC 161 at 200 ug/ml after 18 hr by cup-plate method; details: MTCC 161, 18 h, read-out: DIZ
# Penicillium chrysogenum [40] = experiment: Antifungal activity against Penicillium chrysogenum MTCC 161 at 100 ug/ml after 18 hr by cup-plate method; details: MTCC 161, 18 h, read-out: DIZ
# Aspergillus niger [41] = experiment: Antifungal activity against Aspergillus niger MTCC 2546 at 1000 ug/ml after 18 hr by cup-plate method; details: MTCC 2546, 18 h, read-out: DIZ
# Aspergillus niger [42] = experiment: Antifungal activity against Aspergillus niger MTCC 2546 at 1500 ug/ml after 18 hr by cup-plate method; details: MTCC 2546, 18 h, read-out: DIZ
# Aspergillus niger [43] = experiment: Antifungal activity against Aspergillus niger MTCC 2546 at 500 ug/ml after 18 hr by cup-plate method; details: MTCC 2546, 18 h, read-out: DIZ
# Aspergillus niger [44] = experiment: Antifungal activity against Aspergillus niger MTCC 2546 at 100 ug/ml after 18 hr by cup-plate method; details: MTCC 2546, 18 h, read-out: DIZ
# Aspergillus niger [45] = experiment: Antifungal activity against Aspergillus niger MTCC 2546 at 200 ug/ml after 18 hr by cup-plate method; details: MTCC 2546, 18 h, read-out: DIZ
# Escherichia coli [46] = experiment: Antibacterial activity against Escherichia coli MTCC 1573 at 1500 ug/ml after 18 hr by cup-plate method; details: MTCC 1573, 18 h, read-out: DIZ
# Escherichia coli [47] = experiment: Antibacterial activity against Escherichia coli MTCC 1573 at 500 ug/ml after 18 hr by cup-plate method; details: MTCC 1573, 18 h, read-out: DIZ
# Escherichia coli [48] = experiment: Antibacterial activity against Escherichia coli MTCC 1573 at 1000 ug/ml after 18 hr by cup-plate method; details: MTCC 1573, 18 h, read-out: DIZ
# Escherichia coli [49] = experiment: Antibacterial activity against Escherichia coli MTCC 1573 at 200 ug/ml after 18 hr by cup-plate method; details: MTCC 1573, 18 h, read-out: DIZ
# Escherichia coli [50] = experiment: Antibacterial activity against Escherichia coli MTCC 1573 at 100 ug/ml after 18 hr by cup-plate method; details: MTCC 1573, 18 h, read-out: DIZ
# Pseudomonas fluorescens [51] = experiment: Antibacterial activity against Pseudomonas fluorescens MTCC 2421 at 100 ug/ml after 18 hr by cup-plate method; details: MTCC 2421, 18 h, read-out: DIZ
# Pseudomonas aeruginosa [52] = experiment: Antibacterial activity against Pseudomonas aeruginosa MTCC 424 at 1500 ug/ml after 18 hr by cup-plate method; details: MTCC 424, 18 h, read-out: DIZ
# Pseudomonas aeruginosa [53] = experiment: Antibacterial activity against Pseudomonas aeruginosa MTCC 424 at 1000 ug/ml after 18 hr by cup-plate method; details: MTCC 424, 18 h, read-out: DIZ
smiles,measurement,setting,value
C(=N\c1nc[nH]n1)/c1ccco1,zone of inhibition at 500 µg/mL,Pseudomonas aeruginosa [1],13 mm
same,zone of inhibition at 200 µg/mL,Pseudomonas aeruginosa [2],11 mm
same,zone of inhibition at 100 µg/mL,Pseudomonas aeruginosa [3],10 mm
same,zone of inhibition at 1500 µg/mL,Micrococcus luteus [4],22 mm
same,zone of inhibition at 1000 µg/mL,Micrococcus luteus [5],21 mm
same,zone of inhibition at 500 µg/mL,Micrococcus luteus [6],18 mm
same,zone of inhibition at 200 µg/mL,Micrococcus luteus [7],16 mm
same,zone of inhibition at 100 µg/mL,Micrococcus luteus [8],12 mm
same,zone of inhibition at 1500 µg/mL,Bacillus pumilus [9],20 mm
same,zone of inhibition at 1000 µg/mL,Bacillus pumilus [10],17 mm
same,zone of inhibition at 500 µg/mL,Bacillus pumilus [11],16 mm
same,zone of inhibition at 200 µg/mL,Bacillus pumilus [12],15 mm
same,zone of inhibition at 100 µg/mL,Bacillus pumilus [13],11 mm
same,zone of inhibition at 1000 µg/mL,Bacillus subtilis [14],17 mm
same,zone of inhibition at 1500 µg/mL,Bacillus subtilis [15],22 mm
same,zone of inhibition at 500 µg/mL,Bacillus subtilis [16],16 mm
same,zone of inhibition at 200 µg/mL,Bacillus subtilis [17],15 mm
same,zone of inhibition at 100 µg/mL,Bacillus subtilis [18],11 mm
same,zone of inhibition at 1500 µg/mL,Staphylococcus aureus [19],18 mm
same,zone of inhibition at 1000 µg/mL,Staphylococcus aureus [20],15 mm
same,zone of inhibition at 500 µg/mL,Staphylococcus aureus [21],14 mm
same,zone of inhibition at 200 µg/mL,Staphylococcus aureus [22],12 mm
same,MIC,Penicillium chrysogenum [23],500 µg/mL
same,MIC,Aspergillus niger [24],500 µg/mL
same,MIC,Escherichia coli [25],400 µg/mL
same,MIC,Pseudomonas fluorescens [26],300 µg/mL
same,MIC,Pseudomonas aeruginosa [27],500 µg/mL
same,MIC,Micrococcus luteus [28],300 µg/mL
same,MIC,Bacillus pumilus [29],300 µg/mL
same,MIC,Staphylococcus aureus [30],600 µg/mL
same,MIC,Bacillus subtilis [31],300 µg/mL
same,zone of inhibition at 1000 µg/mL,Pseudomonas fluorescens [32],20 mm
same,zone of inhibition at 1500 µg/mL,Pseudomonas fluorescens [33],23 mm
same,zone of inhibition at 500 µg/mL,Pseudomonas fluorescens [34],18 mm
same,zone of inhibition at 200 µg/mL,Pseudomonas fluorescens [35],16 mm
same,zone of inhibition at 1500 µg/mL,Penicillium chrysogenum [36],21 mm
same,zone of inhibition at 1000 µg/mL,Penicillium chrysogenum [37],18 mm
same,zone of inhibition at 500 µg/mL,Penicillium chrysogenum [38],17 mm
same,zone of inhibition at 200 µg/mL,Penicillium chrysogenum [39],15 mm
same,zone of inhibition at 100 µg/mL,Penicillium chrysogenum [40],11 mm
same,zone of inhibition at 1000 µg/mL,Aspergillus niger [41],19 mm
same,zone of inhibition at 1500 µg/mL,Aspergillus niger [42],23 mm
same,zone of inhibition at 500 µg/mL,Aspergillus niger [43],18 mm
same,zone of inhibition at 100 µg/mL,Aspergillus niger [44],11 mm
same,zone of inhibition at 200 µg/mL,Aspergillus niger [45],16 mm
same,zone of inhibition at 1500 µg/mL,Escherichia coli [46],25 mm
same,zone of inhibition at 500 µg/mL,Escherichia coli [47],14 mm
same,zone of inhibition at 1000 µg/mL,Escherichia coli [48],15 mm
same,zone of inhibition at 200 µg/mL,Escherichia coli [49],13 mm
same,zone of inhibition at 100 µg/mL,Escherichia coli [50],10 mm
same,zone of inhibition at 100 µg/mL,Pseudomonas fluorescens [51],13 mm
same,zone of inhibition at 1500 µg/mL,Pseudomonas aeruginosa [52],21 mm
same,zone of inhibition at 1000 µg/mL,Pseudomonas aeruginosa [53],15 mm
